The numbers were not newly measured in US20220265629A1, “TREATMENT OF SYSTOLIC DYSFUNCTION AND HEART FAILURE WITH REDUCED EJECTION FRACTION WITH THE COMPOUND (R)-4-(1-((3-(DIFLUOROMETHYL)-1-METHYL-1H-PYRAZOL-4-YL)SULFONYL)-1-FLUOROETHYL)-N-(ISOXAZOL-3-YL)PIPERIDINE-1-CARBOXAMIDE” (MyoKardia, Inc., priority 2019, published 2022), which cites them from elsewhere.

The subject of data set [1] is healthy volunteers. Particulars: correlated with increase in SET; cited from earlier work.
In data set [2] the test system is HFrEF. The settings on record: Teerlink et al.; cited from earlier work.

Regarding `COC(=O)N1CCN(Cc2cccc(NC(=O)Nc3ccc(C)nc3)c2F)CC1` [omecamtiv mecarbil], in data set [1], the “ischemia at high doses” value is given as “resulted in ischemia”. Besides, in data set [2], the troponin entry is “Mild troponin elevation”.
